# Laboratory results: US12091402B2 (Avilar Therapeutics, Inc., priority 2021, dated 2024)
# Where a SMILES comes first, the peptide text is derived from it. Bridges are numbered along the chain shown (N, C = ends). The star is where a group is joined. X3 = O=C(CCOCC(COCCC(=O)NCCOCCOCCOCCOC[C@@]12CO[C@@H](O1)[C@H](Nc1nc(Cl)ns1)[C@@H](O)[C@H]2O)NC(=O)CCCCCn1cc(CCCC(=O)*)nn1)NCCOCCOCCOCCOC[C@@]12CO[C@@H](O1)[C@H](Nc1nc(Cl)ns1)[C@@H](O)[C@H]2O; X4 = O=C(CCCc1cn(C[C@H]2OC[C@H](Nc3nccc(C(F)(F)F)n3)[C@@H](O)[C@H]2O)nn1)*; PEG4 = NCCOCCOCCOCCOCCC(=O)O
# Biological target: T1, ASGPR (Homo sapiens, UniProt P07306)
# T1 sequence (P07306 1-291): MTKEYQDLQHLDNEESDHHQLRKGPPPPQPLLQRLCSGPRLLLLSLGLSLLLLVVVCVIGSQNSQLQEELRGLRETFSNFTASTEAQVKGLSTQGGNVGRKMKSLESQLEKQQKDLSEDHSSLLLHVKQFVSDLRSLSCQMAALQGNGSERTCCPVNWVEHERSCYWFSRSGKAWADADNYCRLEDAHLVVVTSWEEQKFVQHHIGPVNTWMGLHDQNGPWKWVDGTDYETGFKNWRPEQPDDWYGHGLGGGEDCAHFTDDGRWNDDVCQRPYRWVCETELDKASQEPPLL
# Test: Affinity to ASGPR by surface plasmon resonance (SPR)
# Experimental: Biotinylated ASGPR (20 μg/ml) was immobilized on SA sensor chips (GE Healthcare) at flow rate of 5 μl/min for 90 sec reaching an immobilization level ranging from 500-3000 resonance units (RU). The running buffer was 50 mM HEPES, pH7.5, 150 mM NaCl, 50 mM CaCl2), 0.01% P20, 3% DMSO. The concentration of compounds vary from 2 mM to 5 nM depending on Kd values. The compounds are diluted 2 or 3-fold with 8 concentration points. Solutions containing serially diluted compounds are injected at a flow rate of 40 μL/min for 150-300 sec followed by a 90-300 sec dissociation phase for each concentration. The surface was regenerated using 50 mM HEPES, pH 7.5, 150 mM NaCl, 5 mM EDTA, 0.01% P20, 3% DMSO.
# Data was processed using the analysis software in Biacore 8K to perform background subtraction, double referencing, and solvent correction. Values of affinity expressed as the dissociation constants (Kd) were determined by fitting the steady state binding responses (RUs) as a function of the concentration ([Compound]) using the following equation: RU=RUmax/(KD+[Compound]), where RU max is the calculated maximal response. Where appropriate double-referenced data were fit to using a 1:1 binding model for kinetic analysis.
row,SMILES,Kd [nM]
1,CC(C)C[C@@H]1NC(=O)[C@@H](NC(=O)[C@@H](NC(=O)[C@H](CCC(N)=O)NC(=O)[C@H](Cc2c[nH]cn2)NC(=O)CCOCCOCCOCCOCCNC(=O)CCCc2cn(C[C@H]3OC[C@H](Nc4nccc(C(F)(F)F)n4)[C@@H](O)[C@H]3O)nn2)C(C)C)CSSC[C@@H](C(=O)N[C@@H](Cc2ccccc2)C(=O)N[C@@H](CO)C(=O)N[C@H](C(N)=O)[C@@H](C)O)NC(=O)[C@H](C(C)C)NC(=O)[C@@H]2CCCN2C(=O)[C@H](CCCNC(=N)N)NC(=O)CNC(=O)[C@H](CCCNC(=N)N)NC(=O)[C@H](Cc2ccc(O)cc2)NC(=O)[C@H](CO)NC1=O [Compound 18] ({X4-PEG4}-HQVCLSYRGRPVCFST-NH2; disulfide 4-13),500 to 1000
2,"COCCO[C@@H]1O[C@H](CO)[C@H](O)[C@H](O)[C@H]1NC(=O)C(F)(F)F [A104, N-((2R,3R,4R,5R,6R)-4,5-dihydroxy-6-(hydroxymethyl)-2-(2-methoxyethoxy)tetrahydro-2H-pyran-3-yl)-2,2,2-trifluoroacetamide]",1000 to 10000
3,"OC[C@@]12CO[C@@H](O1)[C@H](Nc1nccc(C(F)(F)F)c1F)[C@@H](O)[C@H]2O [A42, (1S,2R,3R,4R,5S)-4-[[3-fluoro-4-(trifluoromethyl)-2-pyridyl]amino]-1-(hydroxymethyl)-6,8-dioxabicyclo[3.2.1]octane-2,3-diol]",10000 to 100000
4,CN(C)C[C@H]1OC[C@H](Nc2cncc(C(F)(F)F)n2)[C@@H](O)[C@H]1O [A126],< 1000
5,"CC(=O)NC[C@H]1OC[C@H](Nc2cncc(C(F)(F)F)n2)[C@@H](O)[C@H]1O [A90, N-(((2R,3R,4R,5S)-3,4-dihydroxy-5-((6-(trifluoromethyl)pyrazin-2-yl)amino)tetrahydro-2H-pyran-2-yl)methyl)acetamide]",< 1000
6,"N#Cc1ccnnc1N[C@H]1[C@H]2OC[C@](CO)(O2)[C@H](O)[C@@H]1O [A39, 3-[[(1S,2R,3R,4R,5S)-2,3-dihydroxy-1-(hydroxymethyl)-6,8-dioxabicyclo[3.2.1]octan-4-yl]amino]pyridazine-4-carbonitrile]",1000 to 10000
7,"C=CCO[C@H]1O[C@H](Cn2cc(-c3cccc(OC)c3)nn2)[C@H](O)[C@H](O)[C@H]1Nc1nccc(C(F)(F)F)n1 [A58, (2R,3R,4R,5R,6S)-6-(allyloxy)-2-((4-(3-methoxyphenyl)-1H-1,2,3-triazol-1-yl)methyl)-5-((4-(trifluoromethyl)pyrimidin-2-yl)amino)tetrahydro-2H-pyran-3,4-diol]",1000 to 10000
8,"OC[C@@]12CO[C@@H](O1)[C@H](Nc1cc(Cl)cnc1Cl)[C@@H](O)[C@H]2O [A44, (1S,2R,3R,4R,5S)-4-[(2,5-dichloro-3-pyridyl)amino]-1-(hydroxymethyl)-6,8-dioxabicyclo[3.2.1]octane-2,3-diol]",< 1000
9,CC(C)C[C@@H]1NC(=O)[C@@H](NC(=O)[C@@H](NC(=O)[C@H](CCC(N)=O)NC(=O)[C@H](Cc2c[nH]cn2)NC(=O)CCOCCOCCOCCOCCNC(=O)CCCc2cn(CCCCCC(=O)NC(COCCC(=O)NCCOCCOCCOCCOC[C@@]34CO[C@@H](O3)[C@H](Nc3nc(Cl)ns3)[C@@H](O)[C@H]4O)COCCC(=O)NCCOCCOCCOCCOC[C@@]34CO[C@@H](O3)[C@H](Nc3nc(Cl)ns3)[C@@H](O)[C@H]4O)nn2)C(C)C)CSSC[C@@H](C(=O)N[C@@H](Cc2ccccc2)C(=O)N[C@@H](CO)C(=O)N[C@H](C(N)=O)[C@@H](C)O)NC(=O)[C@H](C(C)C)NC(=O)[C@@H]2CCCN2C(=O)[C@H](CCCNC(=N)N)NC(=O)CNC(=O)[C@H](CCCNC(=N)N)NC(=O)[C@H](Cc2ccc(O)cc2)NC(=O)[C@H](CO)NC1=O [Compound 19] ({X3-PEG4}-HQVCLSYRGRPVCFST-NH2; disulfide 4-13),< 100
10,"C=CCO[C@H]1O[C@H](CN=[N+]=[N-])[C@H](O)[C@H](O)[C@H]1Nc1nccc(C(F)(F)F)n1 [A72, (2R,3R,4R,5R,6S)-6-(allyloxy)-2-(azidomethyl)-5-((4-(trifluoromethyl)pyrimidin-2-yl)amino)tetrahydro-2H-pyran-3,4-diol]",< 1000
11,"OC[C@@]12CO[C@@H](O1)[C@H](Nc1ncc(C(F)(F)F)c(Cl)n1)[C@@H](O)[C@H]2O [A115, (1S,2R,3R,4R,5S)-4-((4-chloro-5-(trifluoromethyl)pyrimidin-2-yl)amino)-1-(hydroxymethyl)-6,8-dioxabicyclo[3.2.1]octane-2,3-diol]",< 1000
12,"OC[C@@]12CO[C@@H](O1)[C@H](Nc1nc3ccccc3o1)[C@@H](O)[C@H]2O [A45, (1S,2R,3R,4R,5S)-4-(benzo[d]oxazol-2-ylamino)-1-(hydroxymethyl)-6,8-dioxabicyclo[3.2.1]octane-2,3-diol]",1000 to 10000
13,"C[C@@H]1O[C@H](CO)[C@H](O)[C@H](O)[C@H]1Nc1nc(Cl)ns1 [A56, (2R,3R,4R,5R,6S)-5-((3-chloro-1,2,4-thiadiazol-5-yl)amino)-2-(hydroxymethyl)-6-methyltetrahydro-2H-pyran-3,4-diol]",1000 to 10000
14,"COc1cccc(-n2cc([C@H]3OC[C@H](Nc4nccc(C(F)(F)F)n4)[C@@H](O)[C@H]3O)nn2)c1 [A61, (2R,3R,4R,5S)-2-(1-(3-methoxyphenyl)-1H-1,2,3-triazol-4-yl)-5-((4-(trifluoromethyl)pyrimidin-2-yl)amino)tetrahydro-2H-pyran-3,4-diol]",10000 to 100000
15,"N#Cc1cc(N[C@H]2[C@H]3OC[C@](CO)(O3)[C@H](O)[C@@H]2O)cnc1Cl [A41, 2-chloro-5-[[(1S,2R,3R,4R,5S)-2,3-dihydroxy-1-(hydroxymethyl)-6,8-dioxabicyclo[3.2.1]octan-4-yl]amino]pyridine-3-carbonitrile]",1000 to 10000
16,"OC[C@@]12CO[C@@H](O1)[C@H](Nc1cccc(C(F)(F)F)n1)[C@@H](O)[C@H]2O [A87, (1S,2R,3R,4R,5S)-1-(hydroxymethyl)-4-((6-(trifluoromethyl)pyridin-2-yl)amino)-6,8-dioxabicyclo[3.2.1]octane-2,3-diol]",< 1000

# Further lines, results first:
row,Kd [nM],SMILES
1,< 100,O=C(CCOCC(COCCC(=O)NCCOCCOCCOCCOC[C@H]1OC[C@H](Nc2nccc(C(F)(F)F)n2)[C@@H](O)[C@H]1O)NC(=O)COCCOCCOCC(=O)NCCN1C(=O)C=CC1=O)NCCOCCOCCOCCOC[C@H]1OC[C@H](Nc2nccc(C(F)(F)F)n2)[C@@H](O)[C@H]1O [A130]
2,< 1000,"[N-]=[N+]=NC[C@H]1OC[C@H](Nc2cncc(C(F)(F)F)n2)[C@@H](O)[C@H]1O [A86, (2R,3R,4R,5S)-2-(azidomethyl)-5-((6-(trifluoromethyl)pyrazin-2-yl)amino)tetrahydro-2H-pyran-3,4-diol]"
3,100 to 500,"O=C(O)COCCOCCOCCOC[C@H]1OC[C@H](Nc2nccc(C(F)(F)F)n2)[C@@H](O)[C@H]1O [A25, 1-((2R,3R,4R,5S)-3,4-dihydroxy-5-((4-(trifluoromethyl)pyrimidin-2-yl)amino)tetrahydro-2H-pyran-2-yl)-2,5,8,11-tetraoxatridecan-13-oic acid]"
4,< 100,"[N-]=[N+]=NCCCCCC(=O)NC(COCCC(=O)NCCOCCOCCOCCOC[C@H]1OC[C@H](Nc2cncc(C(F)(F)F)n2)[C@@H](O)[C@H]1O)COCCC(=O)NCCOCCOCCOCCOC[C@H]1OC[C@H](Nc2cncc(C(F)(F)F)n2)[C@@H](O)[C@H]1O [A2, 3,3′-((2-(6-azidohexanamido)propane-1,3-diyl)bis(oxy))bis(N-(1-((2R,3R,4R,5S)-3,4-dihydroxy-5-((6-(trifluoromethyl)pyrazin-2-yl)amino)tetrahydro-2H-pyran-2-yl)-2,5,8,11-tetraoxatridecan-13-yl)propanamide)]"
5,< 1000,"O=C(O)CC(=O)NC[C@H]1OC[C@H](Nc2cncc(C(F)(F)F)n2)[C@@H](O)[C@H]1O [A32, 3-((((2R,3R,4R,5S)-3,4-dihydroxy-5-((6-(trifluoromethyl)pyrazin-2-yl)amino)tetrahydro-2H-pyran-2-yl)methyl)amino)-3-oxopropanoic acid]"
6,< 1000,"NC[C@H]1OC[C@H](Nc2cncc(C(F)(F)F)n2)[C@@H](O)[C@H]1O [A89, (2R,3R,4R,5S)-2-(aminomethyl)-5-((6-(trifluoromethyl)pyrazin-2-yl)amino)tetrahydro-2H-pyran-3,4-diol]"
7,< 100,"O=C(O)COCCOCCOCC(=O)NC(COCCC(=O)NCCOCCOCCOCCOC[C@H]1OC[C@H](Nc2nccc(C(F)(F)F)n2)[C@@H](O)[C@H]1O)COCCC(=O)NCCOCCOCCOCCOC[C@H]1OC[C@H](Nc2nccc(C(F)(F)F)n2)[C@@H](O)[C@H]1O [A23, 1-((2R,3R,4R,5S)-3,4-dihydroxy-5-((4-(trifluoromethyl)pyrimidin-2-yl)amino)tetrahydro-2H-pyran-2-yl)-20-(1-((2R,3R,4R,5S)-3,4-dihydroxy-5-((4-(trifluoromethyl)pyrimidin-2-yl)amino)tetrahydro-2H-pyran-2-yl)-15-oxo-2,5,8,11,18-pentaoxa-14-azanonadecan-19-yl)-15,22-dioxo-2,5,8,11,18,24,27,30-octaoxa-14,21-diazadotriacontan-32-oic acid]"
8,100 to 500,"[N-]=[N+]=NCCOCCOCCOCCOC[C@H]1OC[C@H](Nc2cncc(C(F)(F)F)n2)[C@@H](O)[C@H]1O [A21, (2R,3R,4R,5S)-2-(13-azido-2,5,8,11-tetraoxatridecyl)-5-((6-(trifluoromethyl)pyrazin-2-yl)amino)tetrahydro-2H-pyran-3,4-diol]"
9,< 100,"O=C(O)CC(=O)NC(COCCC(=O)NCCOCCOCCOCCOC[C@H]1OC[C@H](Nc2cncc(C(F)(F)F)n2)[C@@H](O)[C@H]1O)COCCC(=O)NCCOCCOCCOCCOC[C@H]1OC[C@H](Nc2cncc(C(F)(F)F)n2)[C@@H](O)[C@H]1O [A34, 1-((2R,3R,4R,5S)-3,4-dihydroxy-5-((6-(trifluoromethyl)pyrazin-2-yl)amino)tetrahydro-2H-pyran-2-yl)-20-(1-((2R,3R,4R,5S)-3,4-dihydroxy-5-((6-(trifluoromethyl)pyrazin-2-yl)amino)tetrahydro-2H-pyran-2-yl)-15-oxo-2,5,8,11,18-pentaoxa-14-azanonadecan-19-yl)-15,22-dioxo-2,5,8,11,18-pentaoxa-14,21-diazatetracosan-24-oic acid]"
